This data set in a line: solvent given as SMILES.
Where [1] appears, read: in c1cc(-n2c3ccccc3c3ccccc32)cc(-n2c3ccccc3c3ccccc32)c1.

Take `O=C1CCCc2c1[nH]c1cc3c(cc21)OCO3`: the fluorescence lifetime runs as follows: (in C1CCOC1) 0.442 ns; (in C1COCCO1) 0.481 ns; (in CC#N) 0.978 ns; (in CCCCCCCCCCCCO) 1.36 ns; (in CCCCCCCCCCO) 1.28 ns; (in CCCCCCCCO) 1.25 ns. Moreover, the fluorescence lifetime reads like this: (in CCCCCCO) 1.22 ns; (in CCCCO) 1.12 ns; (in CCO) 1.36 ns; (in CCOC(C)=O) 0.476 ns; (in CN(C)C=O) 0.838 ns; (in CO) 1.78 ns. In addition, the fluorescence lifetime (in CS(C)=O) was determined as 1.43 ns, the fluorescence lifetime (in O) was 2.29 ns and the fluorescence lifetime (in c1ccccc1) is 0.466 ns.
In turn, `CCCCCn1c2ccccc2c(=O)c2ccccc21` had a fluorescence lifetime (in CS(C)=O) of 8.1 ns.
In the case of `Cc1c(C)c(B(c2c(C)c(C)c(N3c4ccccc4Oc4ccccc43)c(C)c2C)c2c(C)c(C)c(N3c4ccccc4Oc4ccccc43)c(C)c2C)c(C)c(C)c1C#N`, where the note is “in c1ccc([Si](c2ccccc2)(c2ccc(-n3c4ccccc4c4ccccc43)cc2)c2ccc(-n3c4ccccc4c4ccccc43)cc2)cc1”, the fluorescence lifetime worked out at 18 ns.
Take `C[SiH](C)c1cccc2ccccc12`: the fluorescence lifetime (in C1CCCCC1) is 61 ns.
In the case of `CC1=C(c2ccc(N(C)C)cc2)C(C)=[N+]2C1=C(c1c(-c3ccccn3)nc3ccccn13)c1c(C)cc(C)n1[B-]2(F)F`, where the note is “in ClCCl”, the fluorescence lifetime came out at 0.5 ns.
Compound `Cc1ccc2c(c1)C1(c3ccccc3Oc3ccccc31)c1cc(C)ccc1N2c1ccc(-c2nc(-c3ccccc3)cc(-c3ccccc3)n2)cc1` returned a fluorescence lifetime (in O=P(c1ccccc1)(c1ccccc1)c1ccc2oc3ccc(P(=O)(c4ccccc4)c4ccccc4)cc3c2c1) of 11 ns.
For `COc1ccc(C#Cc2c3ccccc3c(C#Cc3ccc(OC)cc3)c3cc4sc(C)cc4cc23)cc1`, where the note is “in ClCCl”, the fluorescence lifetime is 5.3 ns.
In the case of `CCN(CC)c1ccc2cc(/C=C/C(=C(C#N)C#N)c3ccc4c(c3)c3ccccc3n4CC)c(=O)oc2c1`, the fluorescence lifetime is, setting by setting: (in CC(C)=O) 4.49 ns; (in CCOC(C)=O) 3.49 ns; (in CN(C)C=O) 4.81 ns; (in CS(C)=O) 4.66 ns; (in Cc1ccccc1) 1.15 ns; (in ClCCl) 3.32 ns.
As for `CCCCN1C(=O)c2cc(Oc3ccc(C(C)(C)C)cc3)c3c4c(Oc5ccc(C(C)(C)C)cc5)cc5c(=O)n6c(c7cc(Oc8ccc(C(C)(C)C)cc8)c(c8c(Oc9ccc(C(C)(C)C)cc9)cc(c2c38)C1=O)c4c57)=Cc1cccc[n+]1[B-]6(F)F`, the fluorescence lifetime is 3.79 ns (in C1CCOC1), 4.1 ns (in Cc1ccccc1) and 4.51 ns (in ClCCl).
As to `CC(C)(C)[Si](C)(C)C#CC1=CC2=c3cc(C#C[Si](C)(C)C(C)(C)C)c4nc(C(F)(F)C(F)(F)C(F)(F)F)nc5c(C#C[Si](C)(C)C(C)(C)C)cc(c3c54)C3=CC(C#C[Si](C)(C)C(C)(C)C)=C4N=C(C(F)(F)C(F)(F)C(F)(F)F)N=C1C4C32` (configuration not stated), the fluorescence lifetime (in C1CCOC1) was 2.1 ns.
Consider `c1ccc(N2N=C(c3c4ccccc4cc4ccccc34)CC2c2ccc3ccc4cccc5ccc2c3c45)cc1` (configuration not stated), for which the fluorescence lifetime (in ClCCl) stood at 1.17 ns.
Turning to `N#Cc1cc(-n2c3ccccc3c3ncccc32)c(-n2c3ccccc3c3ncccc32)cc1C#N`, the fluorescence lifetime under setting [1] amounted to 70 ns.
With `CC(C)(C)c1ccc2c(c1)c1cc(C(C)(C)C)ccc1n2-c1ccc(C#Cc2cccc(C#Cc3ccc(-n4c5ccc(C(C)(C)C)cc5c5cc(C(C)(C)C)ccc54)cc3)c2)cc1`, the fluorescence lifetime turned out to be 5.51 ns (in CC#N); 1.38 ns (in CCCCC); 4.88 ns (in CO); 1.65 ns (in Cc1ccccc1); 2.51 ns (in ClC(Cl)Cl); 3.62 ns (in ClCCl).
Regarding `CCn1c2ccccc2c2cc(-c3cc(-c4ccc5c(c4)c4ccccc4n5CC)nc(-c4ccc(C#N)cc4)n3)ccc21`, the fluorescence lifetime (in C1CCOC1) is 5.14 ns.
As for `CN1CCCc2cc3c(C(F)(F)F)cc(=O)oc3cc21`, the fluorescence lifetime is, setting by setting: (in C1CCCCC1) 4.2 ns; (in CC#N) 5.6 ns; (in CCO) 5.1 ns.
Consider `N#Cc1c(-n2c3ccccc3c3ccccc32)c(-n2c3ccccc3c3ccccc32)c(-n2c3ccccc3c3ccccc32)c(-n2c3ccc(-c4ccccc4)cc3c3cc(-c4ccccc4)ccc32)c1-n1c2ccccc2c2ccccc21`, for which, under “in Cc1ccccc1”, the fluorescence lifetime was found to be 7 ns.
On to `c1ccn(-c2ccc(-c3cc(-c4ccc(-n5cccc5)cc4)cc(-c4ccc(-n5cccc5)cc4)c3)cc2)c1`, for which, under “in ClCCl”, the fluorescence lifetime was found to be 2.98 ns.
For the compound `CCOC(=O)C1(O)c2cc3ccc4cccc5ccc(c2C(=O)N1C(C)(C)C)c3c45` (configuration not stated), under “in ClC(Cl)Cl”, the fluorescence lifetime worked out at 5.11 ns.
On the same count and under the same terms, for `Cc1ccc(C(=O)/N=c2\oc3cccc4c5c(-c6ccccc6)oc6cccc(c(c2-c2ccccc2)c34)c65)cc1` the value was 2.1 ns.
As to `CC(C)[Si](C#Cc1cc2c(C#C[Si](C(C)C)(C(C)C)C(C)C)c(C#C[Si](C(C)C)(C(C)C)C(C)C)c3cc(C#C[Si](C(C)C)(C(C)C)C(C)C)cc4c(C#C[Si](C(C)C)(C(C)C)C(C)C)c(C#C[Si](C(C)C)(C(C)C)C(C)C)c(c1)c2c34)(C(C)C)C(C)C`, the fluorescence lifetime (in ClCCl) came out at 14.1 ns.
Turning to `CC1(C)C(/C=C/C2=C(Cl)C(=C/C=C3/N(CCCCS(=O)(=O)[O-])c4ccc5ccccc5c4C3(C)C)/CCC2)=[N+](CCCCS(=O)(=O)[O-])c2ccc3ccccc3c21`, the fluorescence lifetime turned out to be 0.43 ns (in CC(C)=O); 0.38 ns (in CCO); 0.25 ns (in CO); 0.5 ns (in CS(C)=O); 0.73 ns (in ClC(Cl)Cl); 0.59 ns (in ClCCl). The compound further yielded a fluorescence lifetime (in O) of 0.13 ns.
Consider `N#Cc1c(-n2c3ccc(Cl)cc3c3cc(Cl)ccc32)c(C#N)c(-n2c3ccc(Cl)cc3c3cc(Cl)ccc32)c(-n2c3ccc(Cl)cc3c3cc(Cl)ccc32)c1-n1c2ccc(Cl)cc2c2cc(Cl)ccc21`, for which, under “in Cc1ccccc1”, the fluorescence lifetime came to 0.4 ns.
For `F[B-]12Oc3ccccc3-c3c4[n+]5c(c([n+]31)-c1ccccc1O2)-c1ccccc1O[B-]5(F)Oc1ccccc1-4`, the fluorescence lifetime (in ClCCl) was 4.52 ns.
As for `c1cnc2c(c1)c1nc(-c3ccc(-c4nc5c6cccnc6c6ncccc6c5[nH]4)cc3)[nH]c1c1cccnc12`, the fluorescence lifetime (in CS(C)=O) worked out at 1.36 ns.
As for `N#Cc1ccc(C[C@H](N)C(=O)O)cc1`, the fluorescence lifetime was found to be 3.65 ns (in C1CCOC1); 3.73 ns (in CC#N); 4 ns (in CC(C)O); 4.28 ns (in CC(O)CO); 4.6 ns (in CCCCO); 4.4 ns (in CCCO). The fluorescence lifetime by setting is: (in CCO) 4.1 ns; (in CO) 6.1 ns; (in NC=O) 4.54 ns; (in O) 7 ns; (in O=CO) 8.1 ns.
As for `COc1ccc2cc(-c3ccccc3CC#N)c(=O)oc2c1`, the fluorescence lifetime (in ClC(Cl)Cl) was found to be 2.4 ns.
In the case of `COc1ccc(-c2ccc3c(c2)c2cc(-c4ccc(OC)cc4)ccc2n3-c2ccc(C(=O)c3ccc4sc5ccccc5c4c3)nc2)cc1`, under setting [1], the fluorescence lifetime was 8.4 ns.
As to `[O-][n+]1c(-c2ccc(Br)cc2)cc(N2CCOCC2)nc1/C=C/c1ccccc1`, the fluorescence lifetime (in ClCCl) is 3.7 ns.
On to `COc1ccc2cc(/C=C/c3ccc([N+](=O)[O-])cc3)c(=O)oc2c1`, for which the fluorescence lifetime (in CC#N) came to 1.23 ns.
With `CCc1c(C)[nH]c(C2=[N+]3C(=Cc4c(C)c(CC)c(/C=C/c5ccc(N(C)C)cc5)n4[B-]3(F)F)c3ccccc32)c1C`, where the note is “in ClCCl”, the fluorescence lifetime came to 2.3 ns.
Compound `Nc1ccc2ccc(O)cc2c1` showed a fluorescence lifetime (in O) of 7.69 ns.
In the case of `CC1=N/C(=C\c2ccc(C#N)c(N(C)C)c2)C(=O)N1C`, the fluorescence lifetime by setting is: (in C1CCOC1) 6.8 ns; (in CC#N) 3.5 ns; (in CCCCCC) 16 ns.
With `CC(C)c1ccc(/C=C/c2nc3ccc(N(C)C)cc3s2)cc1`, the fluorescence lifetime was 2.04 ns (in C1CCCCC1) and 3.27 ns (in CC#N).
For `C[SiH](C)c1ccc([SiH](C)C)c2ccccc12`, the fluorescence lifetime (in C1CCCCC1) came to 30 ns.
In the case of `c1ccc(-c2ccc(-c3ccc(-c4ccccc4)cc3)cc2)cc1`, the fluorescence lifetime by setting is: (in C1CCCCC1) 0.8 ns; (in C1CCOC1) 1 ns.
On to `CCOC(=O)c1ccccc1-c1c2ccc(=[N+](CC)CC)cc-2oc2c1c(=O)oc1cc(N(CC)CC)ccc12`, for which the fluorescence lifetime reads like this: (in CCO) 2.12 ns; (in ClC(Cl)Cl) 4.31 ns; (in O) 0.27 ns.
`C(#Cc1ccccc1)C(C#Cc1ccccc1)=Cc1ccc(-c2ccc(C=C(C#Cc3ccccc3)C#Cc3ccccc3)cc2)cc1`: the fluorescence lifetime (in ClC(Cl)Cl) was found to be 0.7 ns.
Under “in C1CCOC1”, `CC1=[N+]2C(=C(c3ccc(C(=C(c4ccccc4)c4ccccc4)c4ccccc4)cc3)c3ccc(/C=C/c4ccc(C(=C(c5ccccc5)c5ccccc5)c5ccccc5)cc4)n3[B-]2(F)F)C=C1` returned a fluorescence lifetime of 3.5 ns.
Same read-out and setting: under `CN(C)c1ccc(C2=Nc3scc(-c4ccc(C#N)cc4)[n+]3[B-](F)(F)O2)cc1` stands 1.69 ns.
Regarding `FC(F)(F)c1ccc(/C=C/c2ccc(-c3nnc(-c4ccc(-c5cc6ccccc6s5)cc4)o3)cc2)cc1`, the fluorescence lifetime is, setting by setting: (in Cc1ccccc1) 0.57 ns; (in ClC(Cl)Cl) 0.7 ns.
`C[n+]1c2c(c(-c3ccccc3)c3c1CCCC3)CCCC2`: the fluorescence lifetime (in CCO) stood at 5.39 ns.
Compound `CCn1c2ccccc2c2cc(-c3cc(-c4ccc5c(c4)c4ccccc4n5CC)nc(-c4ccccc4)n3)ccc21` displayed a fluorescence lifetime (in C1CCOC1) of 1.77 ns.
Regarding `O=C1c2ccc(N(c3ccccc3)c3ccccc3)cc2C(=O)c2ccc(N(c3ccccc3)c3ccccc3)cc21`, the fluorescence lifetime was 5.3 ns (in Cc1ccccc1) and 4.9 ns (in c1ccc2c(c1)c1ccccc1n2-c1ccc(-c2ccc(-n3c4ccccc4c4ccccc43)cc2)cc1).
Turning to `CN1C(=CC=Cc2nc3nc4ccccc4nc3s2)C(C)(C)c2ccccc21`, the fluorescence lifetime runs as follows: (in CCCCCCC(C)O) 1.04 ns; (in CCOC(C)=O) 0.92 ns; (in CO) 0.18 ns; (in CS(C)=O) 1.04 ns; (in Cc1ccccc1) 0.11 ns; (in ClC(Cl)Cl) 1.08 ns. The compound further gave a fluorescence lifetime (in ClCCl) of 0.99 ns.
